Data from patent US20240158393A1, “PYRIDONE COMPOUNDS AND METHODS OF USE” (Exelixis, Inc., priority 2021, published 2024).

Legend:
Type in all cases: biochemical
[1] = target: T1, Human Met (Homo sapiens, UniProt P08581); experiment: Human Met kinase assay (33P radiometric / HTRF KinEase); settings: protocols of Examples D-1 and/or D-2; read-out: c-Met IC50
T1 construct: Human MET (residues 956-1390)
Protocol: (§1) Kinase activity and compound inhibition were investigated using the ^33P-Phosphoryl transfer radiometric kinase assay, performed using the KinaseProfiler™ service of Eurofins Pharma Discovery Services UK Limited. Dose-response experiments were performed using nine compound concentrations in a 96-well microtiter plate. For each assay, all compounds were prepared to a 50× final assay concentration (50 μM) in 100% DMSO, then diluted in a half-log series, with the final top concentration at 1 μM. This working stock of the compound was added to the assay well as the first component in the reaction, followed by the remaining components as detailed in the following assay protocols below. The positive control wells (100% kinase activity) contain all components of the reaction including 2% DMSO (control for solvent effects), except the compound of interest. Blank wells contain all components of the reaction, with the reference inhibitor, staurosporine. This reference compound was used to abolish kinase activity and generated the 0% kinase activity base-line. IC50 values were calculated by nonlinear regression analysis using the sigmoidal dose-response (variable slope) curve fit on XLFit version 5.3 (ID Business Solutions).
(§2) Kinase activity and compound inhibition were also investigated using the HTRF® KinEase assay (Cisbio Cat #62TKOPEB) per manufacturer's instructions. In short, compounds were delivered in 300 nL volumes at 10 different concentrations in DMSO (3% final) to empty 384-well assay plates (Corning cat #3824). A mixture of enzyme, 1 μM biotinylated peptide substrate, and buffer in 10 μL volume was added. The assay was started upon the addition of ATP (at Km). The 10 μL reaction was incubated at room temperature. The reaction was stopped upon the addition of detection buffer containing streptavidin-XL665 (5 μL) and TK antibody-Eu3+(5 μL). After a 60 min incubation at room temperature, the fluorescence at 665 nm and 620 nm was read on an Envision microplate reader (Perkin Elmer).
(§3) Kinase activity normalized to DMSO (100% activity) and reference compound at 1 μM and (0% activity) was calculated using the fluorescence ratio […]. IC50 values were calculated by nonlinear regression analysis using a 4-parameter logistic curve fit in ActivityBase XE (IDBS).
Example D-1: Human Met (residues R974-S1390 with A1209G and V1290L, 3.4 nM) was incubated with 8 mM MOPS pH 7.0, 0.2 mM EDTA, 250 μM KKKGQEEEYVFIE (SEQ ID NO:3), 1 mM sodium orthovanadate, 5 mM […], 10 mM magnesium acetate, and 10 μM [γ-^33P-ATP]. The reaction was initiated by the addition of the Mg/ATP mix. After incubation for 40 minutes at room temperature, the reaction was stopped by the addition of phosphoric acid to a concentration of 0.5%. A reaction aliquot of 10 μL was then spotted onto a P30 filtermat and washed four times for 4 minutes in 0.425% phosphoric acid and once in methanol prior to drying and scintillation counting. Incorporated ^33P was measured using the Wallac Microbeta scintillation counter (Perkin Elmer).
(§4) Example D-2: Human MET (residues 956-1390; CarnaBio, 0.1 ng/well) was also incubated with enzymatic buffer (Cisbio) supplemented with 5 mM MgCl2, 1 mM DTT and 1 mM MnCl2. The mixture was added to the pre-plated compounds. The reaction was initiated upon addition of ATP at Km (3.0 μM). The reaction was incubated at room temperature for 40 min and stopped upon the addition of SA-XL665 and TK-antibody both diluted in EDTA-containing kinase detection buffer (Cisbio). The kinase activity was calculated as stated above and the IC50 values were reported.

[2] = target: T2, Human Mer (Homo sapiens, UniProt Q12866); experiment: Human Mer kinase assay (33P radiometric / HTRF KinEase); settings: protocols of Examples C-1 and/or C-2
T2 construct: Human Mer (residues R557-E882 with H628Q and R794A, 0.7 nM); purchased Eurofins Pharma Discovery Services UK Limited (KinaseProfiler service)
T2 sequence (Q12866 557-882 limits assumed): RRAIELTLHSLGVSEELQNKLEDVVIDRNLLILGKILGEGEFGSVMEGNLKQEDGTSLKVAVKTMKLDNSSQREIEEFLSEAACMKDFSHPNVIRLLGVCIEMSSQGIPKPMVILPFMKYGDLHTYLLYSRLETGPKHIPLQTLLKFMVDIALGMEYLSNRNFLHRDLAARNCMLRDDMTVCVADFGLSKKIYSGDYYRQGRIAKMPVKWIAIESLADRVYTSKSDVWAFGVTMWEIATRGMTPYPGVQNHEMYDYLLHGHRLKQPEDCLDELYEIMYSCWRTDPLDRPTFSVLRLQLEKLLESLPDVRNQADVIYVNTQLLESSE
Protocol: as §1, §2, §3
(§5) Example C-1: Human Mer (residues R557-E882 with H628Q and R794A, 0.7 nM) was incubated with 8 mM MOPS pH 7.0, 0.2 mM EDTA, 30 mM NaCl, 250 μM GGMEDIYFEFMGGKKK (SEQ ID NO: 2), 10 mM magnesium acetate, and 10 μM [γ-^33P-ATP]. The reaction was initiated by the addition of the Mg/ATP mix. After incubation for 40 minutes at room temperature, the reaction was stopped by the addition of phosphoric acid to a concentration of 0.5%. A reaction aliquot of 10 μL was then spotted onto a P30 filtermat and washed four times for 4 minutes in 0.425% phosphoric acid and once in methanol prior to drying and scintillation counting. Incorporated ^33P was measured using the Wallac Microbeta scintillation counter (Perkin Elmer).
Example C-2: Human MER (residues 528-999; CarnaBio, 1 ng/well) was also incubated with enzymatic buffer (Cisbio) supplemented with 5 mM MgCl2 and 1 mM DTT. The mixture was added to the pre-plated compounds. The reaction was initiated upon addition of ATP at Km (40 μM). The reaction was incubated at room temperature for 60 min and stopped upon the addition of SA-XL665 and TK-antibody both diluted in EDTA-containing kinase detection buffer (Cisbio). The kinase activity was calculated as stated above and the IC50 values were reported.

[3] = target: T3, Human KDR (Homo sapiens, UniProt P35968); experiment: Human KDR kinase assay (33P radiometric / HTRF KinEase); settings: protocols of Examples B-1 and/or B-2
T3 construct: Human KDR (residues K790-V1356, 55 nM); purchased Eurofins Pharma Discovery Services UK Limited (KinaseProfiler, B-1) and/or CarnaBio (B-2)
Protocol: as §1, §2, §3
as §5, with “B-1:” for “C-1:”, “KDR” for “Mer”, “K790-V1356, 55” for “R557-E882 with H628Q and R794A, 0.7”, “0.33 mg/mL myelin basic protein,” for “30 mM NaCl, 250 μM GGMEDIYFEFMGGKKK (SEQ ID NO: 2),”
as §4, with “B-2:” for “D-2:”, “KDR” for “MET”, “790-1356;” for “956-1390;”, “MnCl2,” for “DTT”, “DTT.” for “MnCl2.”, “(4.0” for “(3.0”

T1 sequence (P08581 974-1390 limits assumed): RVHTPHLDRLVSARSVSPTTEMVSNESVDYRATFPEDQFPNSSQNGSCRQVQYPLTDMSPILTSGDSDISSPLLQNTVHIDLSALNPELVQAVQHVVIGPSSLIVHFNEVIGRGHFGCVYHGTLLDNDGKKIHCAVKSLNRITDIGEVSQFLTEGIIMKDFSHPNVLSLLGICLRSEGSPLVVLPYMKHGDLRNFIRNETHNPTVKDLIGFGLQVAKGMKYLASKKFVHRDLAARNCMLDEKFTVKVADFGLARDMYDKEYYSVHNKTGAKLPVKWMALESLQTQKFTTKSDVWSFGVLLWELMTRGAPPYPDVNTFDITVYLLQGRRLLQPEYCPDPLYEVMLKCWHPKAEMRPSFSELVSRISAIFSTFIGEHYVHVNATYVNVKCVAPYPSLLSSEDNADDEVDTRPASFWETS
T3 sequence (P35968 790-1356): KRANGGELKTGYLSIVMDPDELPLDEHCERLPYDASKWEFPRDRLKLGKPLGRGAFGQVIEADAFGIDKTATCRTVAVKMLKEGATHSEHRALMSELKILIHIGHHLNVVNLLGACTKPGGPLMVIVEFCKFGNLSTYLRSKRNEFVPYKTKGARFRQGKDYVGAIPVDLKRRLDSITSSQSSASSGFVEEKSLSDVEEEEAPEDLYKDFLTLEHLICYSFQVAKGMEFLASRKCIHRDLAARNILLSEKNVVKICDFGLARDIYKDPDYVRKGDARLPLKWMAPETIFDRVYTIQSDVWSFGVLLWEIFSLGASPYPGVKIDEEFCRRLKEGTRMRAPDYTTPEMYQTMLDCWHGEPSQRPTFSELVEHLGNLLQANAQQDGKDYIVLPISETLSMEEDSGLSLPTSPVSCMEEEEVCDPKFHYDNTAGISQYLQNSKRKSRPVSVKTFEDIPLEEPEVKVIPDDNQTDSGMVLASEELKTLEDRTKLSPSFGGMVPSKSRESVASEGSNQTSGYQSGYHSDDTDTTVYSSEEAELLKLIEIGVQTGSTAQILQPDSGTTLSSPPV

Compound	IC50 [1] [nM]	IC50 [2] [nM]	IC50 [3] [nM]
COc1cc2nccc(Oc3ccc(NC(=O)c4c(C)n(C)c(C)c(OC)c4=O)cc3F)c2nc1OC [Compound 77, N-[4-[(6,7-Dimethoxy-1,5-naphthyridin-4-yl)oxy]-3-fluorophenyl]-5-methoxy-1,2,6-trimethyl-4-oxopyridine-3-carboxamide]	> 300	> 300	> 300
COc1cc2nccc(Oc3ccc(NC(=O)c4c5n(c(C)c(C6=CCCC6)c4=O)CCOC5)cc3F)c2nc1OC [Compound 69, 7-(Cyclopenten-1-yl)-N-[4-[(6,7-dimethoxy-1,5-naphthyridin-4-yl)oxy]-3-fluorophenyl]-6-methyl-8-oxo-3,4-dihydro-1H-pyrido[2,1-c][1,4]oxazine-9-carboxamide]	≤ 100	≤ 100	≤ 100
C=C(C)c1c(C)nc(C)c(C(=O)Nc2ccc(Oc3ccnc4cc(OC)cnc34)c(F)c2)c1O [Compound 3, N-[3-Fluoro-4-[(7-methoxy-1,5-naphthyridin-4-yl)oxy]phenyl]-4-hydroxy-2,6-dimethyl-5-prop-1-en-2-ylpyridine-3-carboxamide]	≤ 100	≤ 100	≤ 100
COc1cc2nccc(Oc3ccc(NC(=O)c4c5n(cc(C6=CCCC6)c4=O)CCOC5)cc3)c2nc1OC [Compound G1-6, 7-(Cyclopenten-1-yl)-N-[4-[(6,7-dimethoxy-1,5-naphthyridin-4-yl)oxy]phenyl]-8-oxo-3,4-dihydro-1H-pyrido[2,1-c][1,4]oxazine-9-carboxamide]	≤ 100	≤ 100	> 300
COc1cnc2c(Oc3ccc(NC(=O)c4c(C)nc(C)c(OC)c4O)cc3F)ccnc2c1 [Compound 60, N-[3-Fluoro-4-[(7-methoxy-1,5-naphthyridin-4-yl)oxy]phenyl]-4-hydroxy-5-methoxy-2,6-dimethylpyridine-3-carboxamide]	> 300	> 300	≤ 100
COc1cc2nccc(Oc3ccc(NC(=O)c4c(C)nc(C)c(OC)c4O)cc3F)c2nc1OC [Compound 62, N-[4-[(6,7-Dimethoxy-1,5-naphthyridin-4-yl)oxy]-3-fluorophenyl]-4-hydroxy-5-methoxy-2,6-dimethylpyridine-3-carboxamide]	> 300	≤ 100	≤ 100
C=C(C)c1c(C)nc(C)c(C(=O)Nc2ccc(Oc3ccnc4cc(OC)c(OC)nc34)cc2)c1O [Compound 4, N-[4-[(6,7-Dimethoxy-1,5-naphthyridin-4-yl)oxy]phenyl]-4-hydroxy-2,6-dimethyl-5-prop-1-en-2-ylpyridine-3-carboxamide]	≤ 100	≤ 100	≤ 100

Further lines, results first:

IC50 [1] [nM]	IC50 [2] [nM]	IC50 [3] [nM]	Compound
≤ 100	≤ 100	≤ 100	C=C(C)c1c(C)nc(C)c(C(=O)Nc2ccc(Oc3ccnc4cc(OC)c(OC)nc34)c(F)c2)c1O [Compound 5, N-[4-[(6,7-Dimethoxy-1,5-naphthyridin-4-yl)oxy]-3-fluorophenyl]-4-hydroxy-2,6-dimethyl-5-prop-1-en-2-ylpyridine-3-carboxamide]
> 300	> 300	≤ 100	COCCOc1cc2nccc(Oc3ccc(NC(=O)c4c(C)nc(C)c(OC)c4O)cc3)c2nc1OC [Compound 71, 4-Hydroxy-5-methoxy-N-[4-[[6-methoxy-7-(2-methoxyethoxy)-1,5-naphthyridin-4-yl]oxy]phenyl]-2,6-dimethylpyridine-3-carboxamide]
> 300	> 300	≤ 100	COc1cc2nccc(Oc3cc(F)c(NC(=O)c4c(C)nc(C)c(OC)c4O)cc3F)c2nc1OC [Compound 68, N-[4-[(6,7-dimethoxy-1,5-naphthyridin-4-yl)oxy]-2,5-difluorophenyl]-4-hydroxy-5-methoxy-2,6-dimethylpyridine-3-carboxamide]
> 300	≤ 100	> 300	COc1cc2nccc(Oc3ccc(NC(=O)c4c(C)n(C)c(C)c(C(C)C)c4=O)cc3F)c2nc1OC [Compound 56, N-[4-[(6,7-Dimethoxy-1,5-naphthyridin-4-yl)oxy]-3-fluorophenyl]-1,2,6-trimethyl-4-oxo-5-propan-2-ylpyridine-3-carboxamide]
> 300	≤ 100	≤ 100	COc1cc2nccc(Oc3ccc(NC(=O)c4c(C)n(C)c(C)c(C(C)C)c4=O)cc3)c2nc1OC [Compound 57, N-[4-[(6,7-Dimethoxy-1,5-naphthyridin-4-yl)oxy]phenyl]-1,2,6-trimethyl-4-oxo-5-propan-2-ylpyridine-3-carboxamide]
